From paper PMC5216056 (Nature Communications, 2017)

Legend:
[1] = target: T1, MAGL (Homo sapiens, UniProt Q99685); assay: Biochemical MAGL activity assay; settings: 10 µM
T1 construct: expressed in transfected cells; host or cells: HEK293T (transient), membrane preparation
T1 sequence (Q99685 1-303): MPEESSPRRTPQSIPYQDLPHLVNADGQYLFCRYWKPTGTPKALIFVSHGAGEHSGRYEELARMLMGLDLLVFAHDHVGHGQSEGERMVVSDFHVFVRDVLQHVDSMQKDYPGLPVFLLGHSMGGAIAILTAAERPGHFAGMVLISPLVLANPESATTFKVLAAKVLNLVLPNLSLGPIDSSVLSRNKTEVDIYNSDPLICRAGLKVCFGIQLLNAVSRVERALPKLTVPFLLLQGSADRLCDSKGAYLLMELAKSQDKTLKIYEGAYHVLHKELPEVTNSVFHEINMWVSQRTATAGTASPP
Procedure: (§1) Cell culture and membrane preparation were performed as previously described. HEK293T cells (source: Dutch Cancer Institute) were grown in DMEM with stable glutamine and phenolred (PAA), 10% New Born Calf serum, penicillin and streptomycin. Cells were passaged every 2–3 days by resuspending in medium and seeding them to appropriate confluence. Membranes were prepared from transiently transfected HEK293T cells. One day prior to transfection 10^7 cells were seeded in a 15 cm petri dish. Cells were transfected by the addition of a 3:1 mixture of polyethyleneimine (60 μg) and plasmid DNA (20 μg) in 2 ml serum-free medium. The medium was refreshed after 24 h, and after 72 h the cells were harvested by suspending them in 20 ml medium. The suspension was centrifuged for 10 min at 1000, rpm, and the supernatant was removed. The cell pellet was stored at −80 °C until use. Cell pellets were thawed on ice and suspended in lysis buffer A (20 mM HEPES, 2 mM DTT, 0.25 M sucrose, 1 mM MgCl2, […] Benzonase). The suspension was homogenized by polytrone (3 × 7 s) and incubated for 30 min on ice. The suspension was subjected to ultracentrifugation (100,000 × g, 30 min, 4 °C, Beckman Coulter, Type Ti70 rotor) to yield the cytosolic fraction in the supernatant and the membrane fraction as a pellet. The pellet was resuspended in lysis buffer B (20 mM HEPES, 2 mM DTT). The protein concentration was determined with Quick Start Bradford assay (Biorad). The protein fractions were diluted to a total protein concentration of 1 mg ml^−1 and stored in small aliquots at −80 °C until use.
Percentage of inhibition of reference ligands was determined in comparison with an untreated control. […] Fluorescence was measured in 5 min intervals for 60 min.

[2] = target: T2, hDAGL-α (Homo sapiens, UniProt Q9Y4D2); assay: Biochemical DAGLα activity assay; settings: 10 µM
T2 construct: expressed in transfected cells; host or cells: HEK293T (transient), membrane preparation
T2 sequence (Q9Y4D2 1-1042): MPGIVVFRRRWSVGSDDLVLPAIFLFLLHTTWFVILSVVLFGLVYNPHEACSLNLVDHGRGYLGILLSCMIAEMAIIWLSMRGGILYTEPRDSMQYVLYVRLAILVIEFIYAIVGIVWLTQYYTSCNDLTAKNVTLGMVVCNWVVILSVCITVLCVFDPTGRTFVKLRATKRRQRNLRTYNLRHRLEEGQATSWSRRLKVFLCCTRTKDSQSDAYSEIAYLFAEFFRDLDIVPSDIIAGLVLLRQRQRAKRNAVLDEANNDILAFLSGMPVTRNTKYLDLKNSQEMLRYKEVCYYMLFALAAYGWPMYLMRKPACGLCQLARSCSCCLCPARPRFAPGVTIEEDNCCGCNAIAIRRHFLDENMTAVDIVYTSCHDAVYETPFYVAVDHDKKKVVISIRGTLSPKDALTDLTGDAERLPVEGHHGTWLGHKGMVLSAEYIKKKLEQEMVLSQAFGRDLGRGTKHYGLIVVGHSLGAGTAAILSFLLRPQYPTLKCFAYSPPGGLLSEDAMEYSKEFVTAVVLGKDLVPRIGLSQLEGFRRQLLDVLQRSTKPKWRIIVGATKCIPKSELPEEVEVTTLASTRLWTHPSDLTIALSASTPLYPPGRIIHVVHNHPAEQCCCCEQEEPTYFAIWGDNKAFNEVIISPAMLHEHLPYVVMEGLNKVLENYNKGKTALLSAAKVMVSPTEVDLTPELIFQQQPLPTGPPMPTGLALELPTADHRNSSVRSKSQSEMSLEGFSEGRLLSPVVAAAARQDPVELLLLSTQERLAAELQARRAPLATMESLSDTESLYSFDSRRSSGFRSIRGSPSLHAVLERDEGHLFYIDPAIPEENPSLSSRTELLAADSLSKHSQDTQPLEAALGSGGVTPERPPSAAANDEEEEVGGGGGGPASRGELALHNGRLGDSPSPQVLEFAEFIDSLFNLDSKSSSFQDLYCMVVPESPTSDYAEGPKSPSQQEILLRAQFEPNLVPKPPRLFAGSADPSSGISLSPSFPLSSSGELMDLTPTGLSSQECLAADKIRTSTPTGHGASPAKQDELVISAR
Procedure: as §1
hDAGL-α activity was measured by the extent of the hydrolysis of para-nitrophenylbutyrate (PNP-butyrate) by membrane preparations from HEK293T cells (source: Dutch Cancer Institute) transiently transfected with hDAGL-α (ref. [43]). Percentage of inhibition of reference ligands was determined in comparison with an untreated control. Reactions were performed in 50 mM pH 7.2 HEPES buffer with 0.05 μg μl^−1 final protein concentration hDAGL-α transfected protein.

[3] = target: T3, human NAPE-PLD (Homo sapiens, UniProt Q6IQ20); assay: NAPE-PLD inhibition; assay type: biochemical; settings: 10 µM
T3 construct: Full length human cDNA NAPE-PLD was obtained from Natsuo Ueda; expressed in transfected cells; host or cells: HEK293T (transient), membrane fraction
T3 sequence (Q6IQ20 whole entry): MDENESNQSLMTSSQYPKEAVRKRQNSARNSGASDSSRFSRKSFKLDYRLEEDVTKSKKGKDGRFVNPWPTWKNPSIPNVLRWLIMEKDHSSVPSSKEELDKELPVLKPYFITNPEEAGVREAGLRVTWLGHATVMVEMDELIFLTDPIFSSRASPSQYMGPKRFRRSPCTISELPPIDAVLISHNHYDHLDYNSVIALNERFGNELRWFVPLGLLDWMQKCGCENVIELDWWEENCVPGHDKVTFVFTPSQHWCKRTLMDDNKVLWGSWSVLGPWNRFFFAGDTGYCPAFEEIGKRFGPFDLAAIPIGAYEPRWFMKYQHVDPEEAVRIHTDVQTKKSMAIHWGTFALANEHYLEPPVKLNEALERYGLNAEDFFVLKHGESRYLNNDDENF
Procedure: Full length human cDNA NAPE-PLD was obtained from Natsuo Ueda[58] and cloned into mammalian expression vector pcDNA3.1, containing a C-terminal Flag-tag and genes for ampicillin and neomycin resistance. All plasmids were grown in XL-10 Z-competent cells and prepped (Maxi Prep, Qiagen). Sequence analysis for the confirmation of the sequences was performed at the Leiden Genome Technology Centre.
HEK293T cells (source: Dutch Cancer Institute) were cultured at 37 °C and 7% CO2 in DMEM with glutamax, penicillin (100 μg ml^−1), streptomycin (100 μg ml^−1) and 10% New Born Calf Serum iron supplemented (Hyclone SH30072.03). Cells were passaged twice a week to appropriate confluence. Twenty-four hours before transfection 10^7 cells were seeded on a 15 cm dish. Two hours before transfection, the medium was refreshed. Transfection is performed with PEI in a ratio of 3:1 with human NAPE-PLD or Mock pcDNA3.1Neo, 20 μg per dish. Medium is refreshed after 24 h and cells are harvested after 72 h. Cell suspensions are centrifuged at 1,000g for 10 min, supernatant removed and pellets frozen at −80 °C until further use.
Cell pellets are re-suspended in lysis buffer 1: 20 mM Hepes, 2 mM DTT, 0.25 M sucrose, 1 mM MgCl2, 2.5 U ml^−1 benzonase and incubated 30 min on ice. The cytosolic fraction (supernatant) is separated from the membranes by ultra-centrifugation (32,000 rpm for 30 min 100,000g). The pellet is resuspended in buffer 2: 20 mM Hepes, 2 mM DTT (membrane fraction). All samples are stored at −80 °C. Enzyme concentrations are determined using a Bradford assay.
The membrane protein fraction from transient overexpression of NAPE-PLD in HEK293T cells was diluted to 0.4 mg ml^−1 in assay buffer: 50 mM Tris-HCl (pH 7.5), 0.02% Triton X-100, 150 mM NaCl (ref. [60]). […] Relevant concentrations of compounds are prepared in DMSO. The assay is performed in a dark Greiner 96-well plate, end volume 100 μl. The compound or DMSO is incubated with membrane protein lysate (final concentration 0.04 mg ml^−1) for 30 min at 37 °C. A sample without membrane protein lysate is incorporated for background subtraction. Then, substrate is added (final concentration 1 μM) and the measurement is started immediately on a TECAN infinite M1000 pro at 37 °C (excitation 485 nm, emission 535 nm), scanning every 2 min for 1 h.

[4] = target: T4, Rat recombinant TRPM8 (Rattus norvegicus, UniProt Q8R455); assay: TRP channel [Ca2+]i assay; assay type: cell-based; settings: agonist
T4 construct: expressed in transfected cells; host or cells: HEK293 (TRPM8-HEK-293, gift from Mario van der Stelt)
T4 sequence (Q8R455 whole entry): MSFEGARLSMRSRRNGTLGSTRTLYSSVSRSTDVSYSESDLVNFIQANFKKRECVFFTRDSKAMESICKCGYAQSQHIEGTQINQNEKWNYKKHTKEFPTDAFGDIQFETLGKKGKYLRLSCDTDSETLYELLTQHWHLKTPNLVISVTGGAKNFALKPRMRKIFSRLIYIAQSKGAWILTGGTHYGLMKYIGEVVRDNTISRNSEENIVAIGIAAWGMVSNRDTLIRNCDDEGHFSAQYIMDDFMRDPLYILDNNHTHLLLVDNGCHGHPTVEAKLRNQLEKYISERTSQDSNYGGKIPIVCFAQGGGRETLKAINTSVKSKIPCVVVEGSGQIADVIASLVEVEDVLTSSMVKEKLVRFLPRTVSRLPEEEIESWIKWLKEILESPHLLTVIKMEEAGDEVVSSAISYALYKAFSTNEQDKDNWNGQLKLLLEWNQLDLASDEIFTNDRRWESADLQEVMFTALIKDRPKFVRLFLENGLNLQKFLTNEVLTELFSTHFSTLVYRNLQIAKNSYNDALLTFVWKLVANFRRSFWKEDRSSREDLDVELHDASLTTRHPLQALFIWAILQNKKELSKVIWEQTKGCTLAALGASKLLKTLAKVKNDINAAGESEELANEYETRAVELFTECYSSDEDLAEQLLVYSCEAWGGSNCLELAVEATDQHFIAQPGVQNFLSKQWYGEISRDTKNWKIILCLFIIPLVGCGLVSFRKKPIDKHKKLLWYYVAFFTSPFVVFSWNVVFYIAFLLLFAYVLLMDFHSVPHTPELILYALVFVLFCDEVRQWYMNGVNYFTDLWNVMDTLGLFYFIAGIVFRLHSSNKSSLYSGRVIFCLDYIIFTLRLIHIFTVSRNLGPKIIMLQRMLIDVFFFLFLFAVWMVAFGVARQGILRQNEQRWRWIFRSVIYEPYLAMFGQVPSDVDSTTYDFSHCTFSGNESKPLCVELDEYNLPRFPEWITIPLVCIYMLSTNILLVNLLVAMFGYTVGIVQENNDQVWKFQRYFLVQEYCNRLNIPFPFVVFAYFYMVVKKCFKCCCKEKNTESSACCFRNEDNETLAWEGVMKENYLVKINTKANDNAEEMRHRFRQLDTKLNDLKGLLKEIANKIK

SMILES	MAGL % inhibition at 10 µM ± SD [1] [%]	DAGL % inhibition at 10 µM ± SD [2] [%]	NAPE-PLD % inhibition at 10 µM ± SD [3] [%]	TRPM8 efficacy [4]	EC50 ([4]; read-out: TRPM8 potency EC50) [nM]
CCCCCc1cc(O)c2c(c1)OC(C)(C)[C@@H]1CCC(C)=C[C@@H]21 [Δ9-THC, Δ^9-tetrahydrocannabinol]	7 ± 17	-9 ± 12	0 ± 12	–	–
O=C1NC(c2cccc([N+](=O)[O-])c2)=CCN1c1ccccc1O [icilin]	–	–	–	75.1±1.1	110 ± 10
